Reference: patent publication US20230295162A1 (EÖTVÖS LORÁND TUDOMÁNYEGYETEM, priority 2020, published 2023)
Like-named read-outs stand apart in the source and are kept apart here.

Legend:
[1] = tested on: Panc1 pancreatic cancer cell line; assay: CellTiter-Glo IC50 (Example 19); format: cell-based; conditions: Homo sapiens, PANC-1, 72 h
Method in brief: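 Viability relative to untreated wells was calculated from luminescence, and curves fitted (log inhibitor vs response, variable slope) yielded IC50. Plating density was 1000 cells/well, incubation at 37° C, 5% CO2.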

Panc-1 human cell line = assay: Cytotoxicity on Panc-1, xCELLigence SP, IC50 after 24 h, 48 h, 72 h and 96 h (Example 22)
[2] = tested on: PANC-1 (human pancreatic carcinoma) cells; assay: Impedance-based viability assay (xCELLigence SP), long treatment; format: cell-based; conditions: 72 h, read-out: cytotoxicity expressed in IC50, PANC-1
Text: (Gibco®/Invitrogen Corporation, New York, NY, USA).
Data obtained from each experiment represent mathematical averages.

[3] = tested on: LNCaP (prostate, carcinoma) cells; assay: Cell viability assay, CellTiter-Glo (Example 21); format: cell-based, human; conditions: 72 h
Method in brief: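 Flat-bottomed white 96 well plates received 1500 LNCaP cells per well, a density chosen to suit the cells' size and growth rate. Following compound treatment, viability was measured by CellTiter-Glo® luminescence per the manufacturer's protocol, with signal recorded on a BioTek Synergy 2 reader. GraphPad Prism 8.4.2 generated dose-response curves using a four-parameter, variable-slope non-linear regression model.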

[4] = tested on: Panc-1 (pancreas, carcinoma) cells; assay: Cell viability assay, CellTiter-Glo (Example 21); format: cell-based, human; conditions: 72 h treatment
Method in brief: (§1)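 Cells were seeded at optimized densities (Panc-1 750, FaDu 1000, Detroit 562 and MDA-MB-453 1500 cells/well), then treated with compound. Viability was read by CellTiter-Glo luminescence. Dose-response curves were fitted by four-parameter variable-slope non-linear regression.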

[5] = tested on: FaDu (pharynx, squamous cell carcinoma) cells; assay: Cell viability assay, CellTiter-Glo (Example 21); format: cell-based, human; conditions: 72 h treatment
Method in brief: as §1

[6] = tested on: Capan-1 (pancreas, adenocarcinoma) cells; assay: Cell viability assay, CellTiter-Glo (Example 21); format: cell-based, human; conditions: 72 h treatment
Method in brief: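 Viability of Capan-1 pancreatic adenocarcinoma cells was assessed using Promega's CellTiter-Glo® luminescence kit. Cells were plated at 1000 cells/well in white, flat-bottom 96 well plates, treated, then luminescence was recorded on a BioTek Synergy 2 reader. Dose-response curves were fitted in GraphPad Prism 8.4.2 with a four-parameter variable-slope non-linear regression.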

[7] = tested on: SCC-25 (tongue, squamous cell carcinoma) cells; assay: Cell viability assay, CellTiter-Glo (Example 21); format: cell-based, human; conditions: 72 h treatment
Method in brief: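 Cell viability of SCC-25 cells was assessed by CellTiter-Glo luminescence after compound exposure. Cells were plated at 1000 cells/well, a density chosen for their size and growth rate, on white flat-bottom 96 well plates. Signal was recorded on a microplate reader, and dose-response curves were fitted in GraphPad Prism by four-parameter variable-slope non-linear regression.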

[8] = tested on: MDA-MB-231 (breast, adenocarcinoma) cells; assay: Cell viability assay, CellTiter-Glo (Example 21); format: cell-based, human; conditions: 72 h treatment
Method in brief: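 Viability of MDA-MB-231 cells was quantified by luminescence using Promega's CellTiter-Glo® kit per manufacturer instructions. Cells, plated at a size- and growth-optimized density of 1500 cells/well in white flat-bottom 96 well plates, were treated and then read on a BioTek Synergy 2 reader; dose-response curves used four-parameter variable-slope non-linear regression in GraphPad Prism 8.4.2.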

[9] = tested on: MDA-MB-453 (breast, carcinoma) cells; assay: Cell viability assay, CellTiter-Glo (Example 21); format: cell-based, human; conditions: 72 h treatment
Method in brief: as §1

[10] = tested on: MIA PaCa-2 (pancreas, carcinoma) cells; assay: Cell viability assay, CellTiter-Glo (Example 21); format: cell-based, human; conditions: 72 h treatment
Method in brief: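 Cell viability of MIA PaCa-2 cells was assessed by CellTiter-Glo® luminescence (Promega, Madison, WI, USA). Cells were plated at 1000 cells/well, a density chosen for their size and growth rate, in white flat-bottomed 96 well plates. After treatment, the signal was recorded on a BioTek microplate reader, and dose-response curves were fitted in GraphPad Prism 8.4.2 with a four-parameter variable-slope non-linear regression.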

[11] = tested on: DU 145 (prostate, carcinoma) cells; assay: Cell viability assay, CellTiter-Glo (Example 21); format: cell-based, human; conditions: 72 h
Method in brief: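 DU 145 prostate carcinoma cells were plated at 1000 cells/well in white flat-bottom 96 well plates and exposed to compound. Viability was then determined by CellTiter-Glo® luminescence on a BioTek Synergy 2 reader, and dose-response curves were fitted in GraphPad Prism 8.4.2 with a four-parameter variable-slope non-linear regression.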

[12] = tested on: EBC-1 (lung, squamous cell carcinoma) cells; assay: Cell viability assay, CellTiter-Glo (Example 21); format: cell-based, human; conditions: 72 h treatment
Method in brief: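 The CellTiter-Glo luminescent cell viability assay (Promega) was used to test compound effects on EBC-1 cells. Cells were plated at 1000 cells/well on white flat-bottom 96 well plates, treated, then read for luminescence on a microplate reader. Dose-response curves were fitted by four-parameter variable-slope non-linear regression.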

[13] = tested on: PC-3 (prostate, adenocarcinoma) cells; assay: Cell viability assay, CellTiter-Glo (Example 21); format: cell-based, human; conditions: 72 h treatment
Method in brief: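 Cancer cell viability was assessed by luminescence using Promega's CellTiter-Glo® kit. PC-3 cells, plated at a density of 1000 cells/well in white flat-bottom 96 well plates, were exposed to test compounds, after which signals were measured on a microplate reader and dose-response curves fitted by four-parameter variable-slope non-linear regression in GraphPad Prism 8.4.2.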

[14] = tested on: Detroit 562 (pharynx, carcinoma) cells; assay: Cell viability assay, CellTiter-Glo (Example 21); format: cell-based, human; conditions: 72 h treatment
Method in brief: as §1

[N-]=[N+]=Nc1ccc(CN2C(=O)C3=C(CCN(Cc4cc(F)cc(F)c4)C3)N3CCN=C23)cc1 [I/107, 4-(4-Azidobenzyl)-7-(3,5-difluorobenzyl)-2,4,6,7,8,9-hexahydroimidazo[1,2-a]pyrido[3,4-e]pyrimidin-5(1H)-one]
IC50 [1]: 14 nM | IC50 (Panc-1 human cell line; PANC-1, 72 h, read-out: IC50 (72 h) [nM]): 102 ± 24.4 nM | IC50 (Panc-1 human cell line; PANC-1, 96 h, read-out: IC50 (96 h) [nM]): 49.6 ± 17 nM | IC50 [2]: 11 nM | LNCaP cell viability ([3]; 3.7 nM): 95.3 ± 2.3 % of control | LNCaP cell viability ([3]; 11.1 nM): 37.9 ± 3.3 % of control | LNCaP cell viability ([3]; 100 nM): 13.5 ± 0.7 % of control | LNCaP cell viability ([3]; 300 nM): 13.6 ± 0.6 % of control | Panc-1 (pancreas, carcinoma) cell viability (% of control) ([4]; 3.7 nM): 107.9 ± 11.5 % of control | Panc-1 (pancreas, carcinoma) cell viability (% of control) ([4]; 11.1 nM): 93.6 ± 8.1 % of control | Panc-1 (pancreas, carcinoma) cell viability (% of control) ([4]; 100 nM): 54.2 ± 0.6 % of control | Panc-1 (pancreas, carcinoma) cell viability (% of control) ([4]; 300 nM): 55.0 ± 3.2 % of control | FaDu (pharynx, squamous cell carcinoma) cell viability (% of control) ([5]; 3.7 nM): 98.6 ± 1.9 % of control | FaDu (pharynx, squamous cell carcinoma) cell viability (% of control) ([5]; 11.1 nM): 74.3 ± 4.2 % of control | FaDu (pharynx, squamous cell carcinoma) cell viability (% of control) ([5]; 100 nM): 24.6 ± 3.6 % of control | FaDu (pharynx, squamous cell carcinoma) cell viability (% of control) ([5]; 300 nM): 25.5 ± 4.3 % of control | Capan-1 (pancreas, adenocarcinoma) cell viability (% of control) ([6]; 3.7 nM): 103.5 ± 3.0 % of control | Capan-1 (pancreas, adenocarcinoma) cell viability (% of control) ([6]; 11.1 nM): 101.2 ± 5.2 % of control | Capan-1 (pancreas, adenocarcinoma) cell viability (% of control) ([6]; 100 nM): 37.6 ± 2.3 % of control | Capan-1 (pancreas, adenocarcinoma) cell viability (% of control) ([6]; 300 nM): 34.7 ± 2.9 % of control | SCC-25 (tongue, squamous cell carcinoma) cell viability (% of control) ([7]; 3.7 nM): 97.3 ± 3.8 % of control | SCC-25 (tongue, squamous cell carcinoma) cell viability (% of control) ([7]; 11.1 nM): 75.6 ± 6.8 % of control | SCC-25 (tongue, squamous cell carcinoma) cell viability (% of control) ([7]; 100 nM): 35.4 ± 5.7 % of control | SCC-25 (tongue, squamous cell carcinoma) cell viability (% of control) ([7]; 300 nM): 42.4 ± 5.7 % of control | MDA-MB-231 (breast, adenocarcinoma) cell viability (% of control) ([8]; 3.7 nM): 102.1 ± 3.5 % of control | MDA-MB-231 (breast, adenocarcinoma) cell viability (% of control) ([8]; 11.1 nM): 98.6 ± 0.8 % of control | MDA-MB-231 (breast, adenocarcinoma) cell viability (% of control) ([8]; 100 nM): 57.3 ± 1.8 % of control | MDA-MB-231 (breast, adenocarcinoma) cell viability (% of control) ([8]; 300 nM): 55.7 ± 0.9 % of control | MDA-MB-453 (breast, carcinoma) cell viability (% of control) ([9]; 3.7 nM): 107.2 ± 9.1 % of control | MDA-MB-453 (breast, carcinoma) cell viability (% of control) ([9]; 11.1 nM): 47.8 ± 6.2 % of control | MDA-MB-453 (breast, carcinoma) cell viability (% of control) ([9]; 100 nM): 32.3 ± 1.3 % of control | MDA-MB-453 (breast, carcinoma) cell viability (% of control) ([9]; 300 nM): 32.2 ± 1.3 % of control | MIA PaCa-2 (pancreas, carcinoma) cell viability (% of control) ([10]; 3.7 nM): 102.5 ± 5.4 % of control | MIA PaCa-2 (pancreas, carcinoma) cell viability (% of control) ([10]; 11.1 nM): 91.5 ± 6.6 % of control | MIA PaCa-2 (pancreas, carcinoma) cell viability (% of control) ([10]; 100 nM): 18.8 ± 6.2 % of control | MIA PaCa-2 (pancreas, carcinoma) cell viability (% of control) ([10]; 300 nM): 17.4 ± 7.1 % of control | DU 145 cell viability ([11]; 3.7 nM): 101.2 ± 6.5 % of control | DU 145 cell viability ([11]; 11.1 nM): 48.7 ± 1.7 % of control | DU 145 cell viability ([11]; 100 nM): 8.3 ± 2.9 % of control | DU 145 cell viability ([11]; 300 nM): 9.0 ± 2.9 % of control | EBC-1 (lung, squamous cell carcinoma) cell viability (% of control) ([12]; 3.7 nM): 99.9 ± 2.5 % of control | EBC-1 (lung, squamous cell carcinoma) cell viability (% of control) ([12]; 11.1 nM): 70.3 ± 0.9 % of control | EBC-1 (lung, squamous cell carcinoma) cell viability (% of control) ([12]; 100 nM): 23.5 ± 1.0 % of control | EBC-1 (lung, squamous cell carcinoma) cell viability (% of control) ([12]; 300 nM): 23.5 ± 2.5 % of control | PC-3 (prostate, adenocarcinoma) cell viability (% of control) ([13]; 3.7 nM): 107.1 ± 5.9 % of control | PC-3 (prostate, adenocarcinoma) cell viability (% of control) ([13]; 11.1 nM): 82.3 ± 7.0 % of control | PC-3 (prostate, adenocarcinoma) cell viability (% of control) ([13]; 100 nM): 32.7 ± 2.6 % of control | PC-3 (prostate, adenocarcinoma) cell viability (% of control) ([13]; 300 nM): 32.8 ± 4.1 % of control | Detroit 562 (pharynx, carcinoma) cell viability (% of control) ([14]; 3.7 nM): 86.6 ± 5.7 % of control | Detroit 562 (pharynx, carcinoma) cell viability (% of control) ([14]; 11.1 nM): 36.8 ± 5.1 % of control | Detroit 562 (pharynx, carcinoma) cell viability (% of control) ([14]; 100 nM): 31.4 ± 2.9 % of control | Detroit 562 (pharynx, carcinoma) cell viability (% of control) ([14]; 300 nM): 34.1 ± 6.5 % of control
